Reference: ChEMBL document CHEMBL5653627 (J Neurochem, 2017)
Activity calls are given as the source filed them. The calls are words filed in the database; no cut-off is given here.

Experiments:
[1] = Toxicity in VM/Dk mouse xenografted with mouse SMA-497 cells assessed as survival rate at 100 mg/kg,po daily with 12 Gy irradition after 2days of treatment initiation (Rvb=17%); assay type: organism-based; conditions: in vivo, 48 h
[2] = test system: SMA-497; assay: Cytotoxicity against mouse SMA-497 cells assessed as reduction in metabolic activity at 0.001 to 100 uM incubated for 72 hrs by MTT assay; assay type: functional, cell-based; conditions: dose 0.001-100 µM
[3] = test system: SMA-540; assay: Anti-clonogenicic activity in mouse SMA-540 cells assessed as reduction in colony formation at 0.001 to 10 uM and measured after 10 days by MTT based clonogenic survival assay; assay type: functional, cell-based; conditions: dose 0.001-10 µM, time 10.0 day
[4] = test system: SMA-497; assay: Antitumor activity against mouse SMA-497 cells xenografted in VM/Dk mouse assessed as increase in number of tumor-infiltrating CD11b positive monocytes/microglia in tumor at 100 mg/kg,po daily by immunohistochemistry analysis; assay type: functional, organism-based
[5] = test system: SMA-540; assay: Antitumor activity against mouse SMA-540 cells xenografted in VM/Dk mouse assessed as tumor cell proliferation at 100 mg/kg,po daily by Ki67 staining based immunohistochemistry analysis; assay type: functional, organism-based
[6] = test system: GL261; assay: In vivo inhibition of TIE-2 in C57Bl/6 mouse xenografted with mouse GL261 cells assessed as decrease in TIE-2 expression in brain blood vessels at 100 mg/kg,po daily by immunohistochemistry analysis; assay type: functional, organism-based
[7] = test system: SMA-560; assay: Antitumor activity against mouse SMA-560 cells xenografted in VM/Dk mouse assessed as increase in number of tumor-infiltrating CD11b positive monocytes/microglia in tumor at 100 mg/kg,po daily with 12 Gy irradition after 2days of treatment initiation by immunohistochemistry analysis; assay type: functional, organism-based
[8] = Toxicity in VM/Dk mouse xenografted with mouse SMA-560 cells assessed as survival rate at 100 mg/kg,po daily with 12 Gy irradition after 2days of treatment initiation (Rvb=30%); assay type: organism-based; conditions: in vivo, 48 h
[9] = Toxicity in VM/Dk mouse xenografted with mouse SMA-497 cells assessed as survival rate at 100 mg/kg,po daily (Rvb=14 to 15%); assay type: organism-based; conditions: in vivo
[10] = biological target: Angiopoietin-1 receptor (Homo sapiens, UniProt Q02763); assay: Binding affinity to TIE2 (unknown origin) assessed as dissociation constant by KINOME scan assay
Chain of Angiopoietin-1 receptor (Q02763 whole entry): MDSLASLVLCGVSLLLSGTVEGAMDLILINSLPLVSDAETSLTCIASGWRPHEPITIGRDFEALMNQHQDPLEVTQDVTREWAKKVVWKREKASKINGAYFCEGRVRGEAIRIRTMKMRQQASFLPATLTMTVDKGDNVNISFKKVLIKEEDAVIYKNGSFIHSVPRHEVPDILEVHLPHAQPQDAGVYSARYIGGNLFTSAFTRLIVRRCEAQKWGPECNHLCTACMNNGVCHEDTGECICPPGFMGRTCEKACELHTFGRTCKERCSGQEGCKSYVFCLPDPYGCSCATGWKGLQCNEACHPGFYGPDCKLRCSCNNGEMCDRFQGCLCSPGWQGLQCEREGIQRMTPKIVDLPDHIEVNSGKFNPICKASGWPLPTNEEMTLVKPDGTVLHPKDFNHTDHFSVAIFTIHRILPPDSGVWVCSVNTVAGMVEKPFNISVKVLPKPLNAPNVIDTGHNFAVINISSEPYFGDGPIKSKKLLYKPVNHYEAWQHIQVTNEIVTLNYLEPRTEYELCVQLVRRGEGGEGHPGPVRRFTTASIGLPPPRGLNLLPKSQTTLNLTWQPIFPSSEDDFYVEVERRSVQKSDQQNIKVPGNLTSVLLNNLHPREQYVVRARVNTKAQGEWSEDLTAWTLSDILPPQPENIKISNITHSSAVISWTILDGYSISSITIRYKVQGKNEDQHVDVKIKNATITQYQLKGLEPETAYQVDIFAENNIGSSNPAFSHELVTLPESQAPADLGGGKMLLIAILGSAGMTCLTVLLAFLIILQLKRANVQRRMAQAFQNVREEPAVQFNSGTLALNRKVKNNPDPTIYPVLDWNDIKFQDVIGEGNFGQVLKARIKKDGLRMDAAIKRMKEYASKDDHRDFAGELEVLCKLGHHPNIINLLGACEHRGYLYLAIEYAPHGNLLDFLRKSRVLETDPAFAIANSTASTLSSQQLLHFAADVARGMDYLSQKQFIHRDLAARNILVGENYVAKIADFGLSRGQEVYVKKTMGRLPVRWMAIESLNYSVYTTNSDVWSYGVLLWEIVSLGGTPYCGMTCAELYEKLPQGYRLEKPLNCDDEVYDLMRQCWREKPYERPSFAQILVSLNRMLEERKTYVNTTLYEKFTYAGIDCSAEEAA

[11] = test system: SMA-497; assay: In vivo inhibition of TIE-2 in VM/Dk mouse xenografted with mouse SMA-497 cells assessed as decrease in TIE-2 expression in brain blood vessels at 100 mg/kg,po daily with 12 Gy irradition after 2days of treatment initiation by immunohistochemistry analysis; assay type: functional, organism-based
[12] = biological target: T1, Discoidin domain-containing receptor 2 (Homo sapiens, UniProt Q16832); assay: Binding affinity to DDR2 (unknown origin) assessed as dissociation constant by KINOME scan assay
T1 sequence (Q16832 whole entry): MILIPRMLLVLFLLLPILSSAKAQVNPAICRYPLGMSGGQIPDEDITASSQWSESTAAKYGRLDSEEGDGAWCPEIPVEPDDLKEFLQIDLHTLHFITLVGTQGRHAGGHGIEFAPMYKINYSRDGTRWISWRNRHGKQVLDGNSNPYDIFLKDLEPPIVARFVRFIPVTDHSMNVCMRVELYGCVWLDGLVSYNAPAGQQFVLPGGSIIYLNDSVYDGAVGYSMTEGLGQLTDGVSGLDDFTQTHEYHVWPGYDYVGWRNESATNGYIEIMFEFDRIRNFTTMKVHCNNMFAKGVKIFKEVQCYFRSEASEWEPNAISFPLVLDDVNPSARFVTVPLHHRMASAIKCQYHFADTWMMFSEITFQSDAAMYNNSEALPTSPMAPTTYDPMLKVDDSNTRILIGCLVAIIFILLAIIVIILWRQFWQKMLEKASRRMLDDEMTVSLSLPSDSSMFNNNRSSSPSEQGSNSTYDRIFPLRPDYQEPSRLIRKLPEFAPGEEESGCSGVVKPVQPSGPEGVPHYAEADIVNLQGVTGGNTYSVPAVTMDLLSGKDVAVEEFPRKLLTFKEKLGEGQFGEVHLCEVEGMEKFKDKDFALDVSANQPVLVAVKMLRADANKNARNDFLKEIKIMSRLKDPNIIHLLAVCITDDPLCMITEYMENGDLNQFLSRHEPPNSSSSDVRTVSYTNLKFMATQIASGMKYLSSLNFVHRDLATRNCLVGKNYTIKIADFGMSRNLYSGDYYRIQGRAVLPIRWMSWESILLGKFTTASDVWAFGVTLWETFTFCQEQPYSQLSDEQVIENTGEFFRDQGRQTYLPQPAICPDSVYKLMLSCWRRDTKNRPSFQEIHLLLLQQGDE

[13] = test system: SMA-497; assay: Antitumor activity against mouse SMA-497 cells xenografted in VM/Dk mouse assessed as increase in number of tumor-infiltrating CD11b positive monocytes/microglia in tumor at 100 mg/kg,po daily with 12 Gy irradition after 2days of treatment initiation by immunohistochemistry analysis; assay type: functional, organism-based
[14] = test system: SMA-540; assay: Antitumor activity against mouse SMA-540 cells xenografted in VM/Dk mouse assessed as increase in number of tumor-infiltrating CD11b positive monocytes/microglia in tumor at 100 mg/kg,po daily by immunohistochemistry analysis; assay type: functional, organism-based
[15] = Toxicity in VM/Dk mouse xenografted with mouse SMA-540 cells assessed as survival rate at 100 mg/kg,po daily (Rvb=>60%); assay type: organism-based; conditions: in vivo
[16] = test system: GL261; assay: Anti-clonogenicic activity in mouse GL261 cells assessed as reduction in colony formation at 0.001 to 10 uM and measured after 10 days by MTT based clonogenic survival assay; assay type: functional, cell-based; conditions: dose 0.001-10 µM, time 10.0 day
[17] = test system: SMA-497; assay: Induction of apoptosis in mouse SMA-497 cells assessed as late apoptotic cells at 0.1 uM incubated for 72 hrs by Annexin V-FITC/PI staining based flow cytometric analysis (reference value: 1.86%); assay type: functional
[18] = test system: GL261; assay: Antitumor activity against mouse GL261 cells xenografted in C57Bl/6 mouse assessed as increase in number of tumor-infiltrating CD11b positive monocytes/microglia in tumor at 100 mg/kg,po daily by immunohistochemistry analysis; assay type: functional, organism-based
[19] = test system: SMA-540; assay: Cytotoxicity against mouse SMA-540 cells assessed as reduction in metabolic activity at 0.001 to 100 uM incubated for 72 hrs by MTT assay; assay type: functional, cell-based; conditions: dose 0.001-100 µM
[20] = test system: SMA-560; assay: Induction of apoptosis in mouse SMA-560 cells assessed as live cells at 0.1 uM incubated for 72 hrs by Annexin V-FITC/PI staining based flow cytometric analysis (reference value: 84.6%); assay type: functional
[21] = test system: SMA-497; assay: In vivo inhibition of TIE-2 in VM/Dk mouse xenografted with mouse SMA-497 cells assessed as decrease in TIE-2 expression in brain blood vessels at 100 mg/kg,po daily by immunohistochemistry analysis; assay type: functional, organism-based
[22] = test system: SMA-560; assay: Induction of apoptosis in mouse SMA-560 cells assessed as early apoptotic cells at 0.1 uM incubated for 72 hrs by Annexin V-FITC/PI staining based flow cytometric analysis (reference value: 0.0056%); assay type: functional
[23] = test system: SMA-560; assay: Antitumor activity against mouse SMA-560 cells xenografted in VM/Dk mouse assessed as tumor cell proliferation at 100 mg/kg,po daily by Ki67 staining based immunohistochemistry analysis; assay type: functional, organism-based

**Q.** With `Cc1cc(C)c(-n2ccn3nc(-c4cccnc4)cc23)cc1NC(=O)c1cc(C#N)cc(S(F)(F)(F)(F)F)c1` [BAY-826] as the compound, how does the Survival [1] read?
**A.** 17%

**Q.** What about the Activity [2] of the same compound?
**A.** inactive

**Q.** And the Activity [3]?
**A.** inactive

**Q.** What about the Activity [4] of the same compound?
**A.** Active

**Q.** And the Activity [5]?
**A.** inactive

**Q.** And the inhibition [6]?
**A.** Active

**Q.** And the Activity [7]?
**A.** Active

**Q.** What about the Survival [8] of the same compound?
**A.** 33.5%

**Q.** And the Survival [9]?
**A.** 17%

**Q.** And the Kd [10]?
**A.** 1.6 nM

**Q.** And the inhibition [11]?
**A.** Active

**Q.** And the Kd [12]?
**A.** 1.3 nM

**Q.** And the Activity [13]?
**A.** Active

**Q.** And the Activity [14]?
**A.** Active

**Q.** And the Survival [15]?
**A.** > 60%

**Q.** And the Activity [16]?
**A.** inactive

**Q.** What about the Activity [17] of the same compound?
**A.** 0.3%

**Q.** What about the Activity [18] of the same compound?
**A.** inactive

**Q.** And the Activity [19]?
**A.** inactive

**Q.** What about the Activity [20] of the same compound?
**A.** 90.5%

**Q.** What about the inhibition [21] of the same compound?
**A.** Active

**Q.** What about the Activity [22] of the same compound?
**A.** 0%

**Q.** What about the Activity [23] of the same compound?
**A.** inactive
